smiles,measurement,setting,value
"Nc1cc(C(F)(F)F)c(-c2nc(N3CCOCC3)nc(N3CCOCC3)n2)cn1 [Bimiralisib, 5-(4,6-dimorpholino-1,3,5-triazin-2-yl)-4-(trifluoromethyl)pyridin-2-amine]",Patients with AEs (any severity) suspected to be related to treatment,7 patients of 8,87.5%
same,AE leading to dose reduction,8 patients,No patients
same,Tolerability,"8 patients, 140 mg orally 2 consecutive days weekly",well tolerated
same,"Aspiration pneumonia, AEs irrespective of causality","any grade, 2 patients of 8",25.0%
same,"Confusional state, AEs irrespective of causality","any grade, 2 patients of 8",25.0%
same,"Rash, AEs irrespective of causality","any grade, 2 patients of 8",25.0%
same,"Vomiting, AEs irrespective of causality","any grade, 2 patients of 8",25.0%
same,"Fatigue, AEs irrespective of causality","any grade, 3 patients of 8",37.5%
same,"Hyperglycemia, AEs irrespective of causality","any grade, 3 patients of 8",37.5%
same,"Nausea, AEs irrespective of causality","any grade, 3 patients of 8",37.5%
same,Patients who died during the study,both events unrelated to treatment,Two
same,SAEs related to treatment with bimiralisib,both hyperglycemia,Two
same,"Patients with severe AEs (SAEs, CTCAE grade ≥3)",five patients of 8,62.5%
same,"Infections and infestations, Grade 1, patients","human, in vivo",0 n (%)
same,"Infections and infestations, Grade 1, total number of events","human, in vivo",0
same,"Infections and infestations, Grade 2, patients","human, in vivo",2 (25.0) n (%)
same,"Infections and infestations, Grade 2, total number of events","human, in vivo",3
same,"Infections and infestations, Grade 3/4, total number of events","human, in vivo",3
same,"Sepsis, Grade 1, patients","human, in vivo",0 n (%)
same,"Sepsis, Grade 1, total number of events","human, in vivo",0
same,"Sepsis, Grade 2, patients","human, in vivo",0 n (%)
same,"Sepsis, Grade 2, total number of events","human, in vivo",0
same,"Sepsis, Grade 3/4, patients","human, in vivo",1 (12.5) n (%)
same,"Skin infection, AEs irrespective of causality","human, in vivo",25%
same,"Skin infection, Grade 1, patients","human, in vivo",0 n (%)
same,"Skin infection, Grade 1, total number of events","human, in vivo",0
same,"Skin infection, Grade 2, patients","human, in vivo",1 (12.5) n (%)
same,"Skin infection, Grade 2, total number of events","human, in vivo",1
same,"Skin infection, Grade 3/4, patients","human, in vivo",1 (12.5) n (%)
same,"Wound infection, Grade 1, patients","human, in vivo",0 n (%)
same,"Wound infection, Grade 1, total number of events","human, in vivo",0
same,"Wound infection, Grade 2, patients","human, in vivo",1 (12.5) n (%)
same,"Wound infection, Grade 2, total number of events","human, in vivo",1
same,"Wound infection, Grade 3/4, patients","human, in vivo",0 n (%)
same,Number of AEs (any severity) suspected to be related to treatment,in 7 patients,23
same,"Acute respiratory distress syndrome, Grade 1, patients",n = 8,0 n (%)
same,"Acute respiratory distress syndrome, Grade 1, total number of events",n = 8,0
same,"Acute respiratory distress syndrome, Grade 2, patients",n = 8,0 n (%)
same,"Acute respiratory distress syndrome, Grade 2, total number of events",n = 8,0
same,"Acute respiratory distress syndrome, Grade 3/4, patients",n = 8,1 (12.5) n (%)
same,"Acute respiratory distress syndrome, Grade 3/4, total number of events",n = 8,1
same,"Alanine aminotransferase increased, Grade 1, patients",n = 8,0 n (%)
same,"Alanine aminotransferase increased, Grade 1, total number of events",n = 8,0
same,"Alanine aminotransferase increased, Grade 2, patients",n = 8,0 n (%)
same,"Alanine aminotransferase increased, Grade 2, total number of events",n = 8,0
same,"Alanine aminotransferase increased, Grade 3/4, patients",n = 8,1 (12.5) n (%)
same,"Alanine aminotransferase increased, Grade 3/4, total number of events",n = 8,1
same,"Anemia, Grade 1, patients",n = 8,0 n (%)
same,"Anemia, Grade 1, total number of events",n = 8,0
same,"Anemia, Grade 2, patients",n = 8,0 n (%)
same,"Anemia, Grade 2, total number of events",n = 8,0
same,"Anemia, Grade 3/4, patients",n = 8,1 (12.5) n (%)
same,"Anemia, Grade 3/4, total number of events",n = 8,1
same,"Any adverse event, Grade 1, patients",n = 8,8 (100.0) n (%)
same,"Any adverse event, Grade 1, total number of events",n = 8,29
same,"Any adverse event, Grade 2, patients",n = 8,3 (37.5) n (%)
same,"Any adverse event, Grade 2, total number of events",n = 8,13
same,"Any adverse event, Grade 3/4, patients",n = 8,5 (62.5) n (%)
same,"Any adverse event, Grade 3/4, total number of events",n = 8,15
same,"Aspartate aminotransferase increased, Grade 1, patients",n = 8,0 n (%)
same,"Aspartate aminotransferase increased, Grade 1, total number of events",n = 8,0
same,"Aspartate aminotransferase increased, Grade 2, patients",n = 8,0 n (%)
same,"Aspartate aminotransferase increased, Grade 2, total number of events",n = 8,0
same,"Aspartate aminotransferase increased, Grade 3/4, patients",n = 8,1 (12.5) n (%)
same,"Aspartate aminotransferase increased, Grade 3/4, total number of events",n = 8,1
same,"Asthenia, Grade 1, patients",n = 8,1 (12.5) n (%)
same,"Asthenia, Grade 1, total number of events",n = 8,1
same,"Asthenia, Grade 2, patients",n = 8,0 n (%)
same,"Asthenia, Grade 2, total number of events",n = 8,0
same,"Asthenia, Grade 3/4, patients",n = 8,0 n (%)
same,"Asthenia, Grade 3/4, total number of events",n = 8,0
same,"Blood and lymphatic system disorders, Grade 1, patients",n = 8,0 n (%)
same,"Blood and lymphatic system disorders, Grade 1, total number of events",n = 8,0
same,"Blood and lymphatic system disorders, Grade 2, patients",n = 8,0 n (%)
same,"Blood and lymphatic system disorders, Grade 2, total number of events",n = 8,0
same,"Blood and lymphatic system disorders, Grade 3/4, patients",n = 8,1 (12.5) n (%)
same,"Blood and lymphatic system disorders, Grade 3/4, total number of events",n = 8,1
same,"Blood creatinine increased, Grade 1, patients",n = 8,1 (12.5) n (%)
same,"Blood creatinine increased, Grade 1, total number of events",n = 8,1
same,"Blood creatinine increased, Grade 2, patients",n = 8,0 n (%)
same,"Blood creatinine increased, Grade 2, total number of events",n = 8,0
same,"Blood creatinine increased, Grade 3/4, patients",n = 8,0 n (%)
same,"Blood creatinine increased, Grade 3/4, total number of events",n = 8,0
same,"Blood glucose increased, Grade 1, patients",n = 8,1 (12.5) n (%)
same,"Blood glucose increased, Grade 1, total number of events",n = 8,1
same,"Blood glucose increased, Grade 2, patients",n = 8,0 n (%)
same,"Blood glucose increased, Grade 2, total number of events",n = 8,0
same,"Blood glucose increased, Grade 3/4, patients",n = 8,0 n (%)
same,"Blood glucose increased, Grade 3/4, total number of events",n = 8,0
same,"Cellulitis, Grade 1, patients",n = 8,0 n (%)
same,"Cellulitis, Grade 1, total number of events",n = 8,0
same,"Cellulitis, Grade 2, patients",n = 8,1 (12.5) n (%)
same,"Cellulitis, Grade 2, total number of events",n = 8,1
same,"Cellulitis, Grade 3/4, patients",n = 8,0 n (%)
same,"Cellulitis, Grade 3/4, total number of events",n = 8,0
same,"Chest pain, Grade 1, patients",n = 8,1 (12.5) n (%)
same,"Chest pain, Grade 1, total number of events",n = 8,1
same,"Chest pain, Grade 2, patients",n = 8,0 n (%)
same,"Chest pain, Grade 2, total number of events",n = 8,0
same,"Chest pain, Grade 3/4, patients",n = 8,0 n (%)
same,"Chest pain, Grade 3/4, total number of events",n = 8,0
same,"Confusional state, Grade 1, patients",n = 8,2 (25.0) n (%)
same,"Confusional state, Grade 1, total number of events",n = 8,2
same,"Confusional state, Grade 2, patients",n = 8,0 n (%)
same,"Confusional state, Grade 2, total number of events",n = 8,0
same,"Confusional state, Grade 3/4, patients",n = 8,0 n (%)
same,"Confusional state, Grade 3/4, total number of events",n = 8,0
same,"Cough, Grade 1, patients",n = 8,1 (12.5) n (%)
same,"Cough, Grade 1, total number of events",n = 8,1
same,"Cough, Grade 2, patients",n = 8,0 n (%)
same,"Cough, Grade 2, total number of events",n = 8,0
same,"Cough, Grade 3/4, patients",n = 8,0 n (%)
same,"Cough, Grade 3/4, total number of events",n = 8,0
same,"Decreased appetite, Grade 1, patients",n = 8,0 n (%)
same,"Decreased appetite, Grade 1, total number of events",n = 8,0
same,"Decreased appetite, Grade 2, patients",n = 8,1 (12.5) n (%)
same,"Decreased appetite, Grade 2, total number of events",n = 8,1
same,"Decreased appetite, Grade 3/4, patients",n = 8,0 n (%)
same,"Decreased appetite, Grade 3/4, total number of events",n = 8,0
same,"Dehydration, Grade 1, patients",n = 8,0 n (%)
same,"Dehydration, Grade 1, total number of events",n = 8,0
same,"Dehydration, Grade 2, patients",n = 8,1 (12.5) n (%)
same,"Dehydration, Grade 2, total number of events",n = 8,1
same,"Dehydration, Grade 3/4, patients",n = 8,0 n (%)
same,"Dehydration, Grade 3/4, total number of events",n = 8,0
same,"Diarrhea, Grade 1, patients",n = 8,0 n (%)
same,"Diarrhea, Grade 1, total number of events",n = 8,0
same,"Diarrhea, Grade 2, patients",n = 8,1 (12.5) n (%)
same,"Diarrhea, Grade 2, total number of events",n = 8,1
same,"Diarrhea, Grade 3/4, patients",n = 8,0 n (%)
same,"Diarrhea, Grade 3/4, total number of events",n = 8,0
same,"Disease progression, Grade 1, patients",n = 8,0 n (%)
same,"Disease progression, Grade 1, total number of events",n = 8,0
same,"Disease progression, Grade 2, patients",n = 8,0 n (%)
same,"Disease progression, Grade 2, total number of events",n = 8,0
same,"Disease progression, Grade 3/4, patients",n = 8,1 (12.5) n (%)
same,"Disease progression, Grade 3/4, total number of events",n = 8,1
same,"Dry skin, Grade 1, patients",n = 8,1 (12.5) n (%)
same,"Dry skin, Grade 1, total number of events",n = 8,1
same,"Dry skin, Grade 2, patients",n = 8,0 n (%)
same,"Dry skin, Grade 2, total number of events",n = 8,0
same,"Dry skin, Grade 3/4, patients",n = 8,0 n (%)
same,"Dry skin, Grade 3/4, total number of events",n = 8,0
same,"Dysarthria, Grade 1, patients",n = 8,1 (12.5) n (%)
same,"Dysarthria, Grade 1, total number of events",n = 8,1
same,"Dysarthria, Grade 2, patients",n = 8,0 n (%)
same,"Dysarthria, Grade 2, total number of events",n = 8,0
same,"Dysarthria, Grade 3/4, patients",n = 8,0 n (%)
same,"Dysarthria, Grade 3/4, total number of events",n = 8,0
same,"Ear and labyrinth disorders, Grade 1, patients",n = 8,2 (25.0) n (%)
same,"Ear and labyrinth disorders, Grade 1, total number of events",n = 8,2
same,"Ear and labyrinth disorders, Grade 2, patients",n = 8,0 n (%)
same,"Ear and labyrinth disorders, Grade 2, total number of events",n = 8,0
same,"Ear and labyrinth disorders, Grade 3/4, patients",n = 8,0 n (%)
same,"Ear and labyrinth disorders, Grade 3/4, total number of events",n = 8,0
same,"Ear pain, Grade 1, patients",n = 8,1 (12.5) n (%)
same,"Ear pain, Grade 1, total number of events",n = 8,1
same,"Ear pain, Grade 2, patients",n = 8,0 n (%)
same,"Ear pain, Grade 2, total number of events",n = 8,0
same,"Ear pain, Grade 3/4, patients",n = 8,0 n (%)
same,"Ear pain, Grade 3/4, total number of events",n = 8,0
same,"Eye disorder, Grade 1, patients",n = 8,1 (12.5) n (%)
same,"Eye disorder, Grade 1, total number of events",n = 8,1
same,"Eye disorder, Grade 2, patients",n = 8,0 n (%)
same,"Eye disorder, Grade 2, total number of events",n = 8,0
same,"Eye disorder, Grade 3/4, patients",n = 8,0 n (%)
same,"Eye disorder, Grade 3/4, total number of events",n = 8,0
same,"Eye disorders, Grade 1, patients",n = 8,1 (12.5) n (%)
same,"Eye disorders, Grade 1, total number of events",n = 8,1
same,"Eye disorders, Grade 2, patients",n = 8,0 n (%)
same,"Eye disorders, Grade 2, total number of events",n = 8,0
same,"Eye disorders, Grade 3/4, patients",n = 8,0 n (%)
same,"Eye disorders, Grade 3/4, total number of events",n = 8,0
same,"Fatigue, Grade 1, patients",n = 8,2 (25.0) n (%)
same,"Fatigue, Grade 1, total number of events",n = 8,2
same,"Fatigue, Grade 2, patients",n = 8,1 (12.5) n (%)
same,"Fatigue, Grade 2, total number of events",n = 8,1
same,"Fatigue, Grade 3/4, patients",n = 8,0 n (%)
same,"Fatigue, Grade 3/4, total number of events",n = 8,0
same,"Gait disturbance, Grade 1, patients",n = 8,1 (12.5) n (%)
same,"Gait disturbance, Grade 1, total number of events",n = 8,1
same,"Gait disturbance, Grade 2, patients",n = 8,0 n (%)
same,"Gait disturbance, Grade 2, total number of events",n = 8,0
same,"Gait disturbance, Grade 3/4, patients",n = 8,0 n (%)
same,"Gait disturbance, Grade 3/4, total number of events",n = 8,0
same,"Gastroesophageal reflux disease, Grade 1, patients",n = 8,1 (12.5) n (%)
same,"Gastroesophageal reflux disease, Grade 1, total number of events",n = 8,1
same,"Gastroesophageal reflux disease, Grade 2, patients",n = 8,0 n (%)
same,"Gastroesophageal reflux disease, Grade 2, total number of events",n = 8,0
same,"Gastroesophageal reflux disease, Grade 3/4, patients",n = 8,0 n (%)
same,"Gastroesophageal reflux disease, Grade 3/4, total number of events",n = 8,0
same,"Gastrointestinal disorders, Grade 1, patients",n = 8,2 (25.0) n (%)
same,"Gastrointestinal disorders, Grade 1, total number of events",n = 8,2
same,"Gastrointestinal disorders, Grade 2, patients",n = 8,3 (37.5) n (%)
same,"Gastrointestinal disorders, Grade 2, total number of events",n = 8,5
same,"Gastrointestinal disorders, Grade 3/4, patients",n = 8,0 n (%)
same,"Gastrointestinal disorders, Grade 3/4, total number of events",n = 8,0
same,"General disorders and administration site conditions, Grade 1, patients",n = 8,5 (62.5) n (%)
